Data taken from US20230106769A1, “SERUM-FREE MEDIUM AND CULTURING METHOD SUITED FOR CULTURING BLOOD CELLS SUCH AS HUMAN HEMATOPOIETIC STEM CELLS” (The University of Tokyo, priority 2020, published 2023).

How the values were obtained:
[1] = tested on: CD34+ cells; experiment: GEmM colony assay (Methocult H4415) after culture with PI3Ka and TPO or butyzamide; format: cell-based, human; details: GEmM colonies per 50 CD34+ cells; after 7-day culture; 0.1 μM butyzamide vs TPO
Protocol: (§1) In the following Examples, butyzamide was used as a TPO receptor agonist. […] After 7 days, the total number of cells was determined and the number of CD34^+ cells was determined by flow cytometry. Thereafter, the growth rate compared to that at the beginning of the incubation was determined. […] In addition, CD34^+ cells were sorted before and after incubation by using a cell sorter, and 100 cells were seeded into Methocult H4415 for colony assay. After two weeks, each colony was picked under a microscope, a cytospin sample was prepared, and the sample was subjected to Giemsa staining. The type of the colony was then identified under a microscope. GEmM colonies per 50 CD34^+ cells were counted and a rate of increase in the number of colonies compared to before the culture was determined.

[2] = tested on: Mp132D cells; experiment: Replacement of TPO by TPO receptor agonists, Mp132D cells; format: cell-based, human; details: 0.1 μM butyzamide, 3 μg/mL eltrombopag, 3 μM avatrombopag; for proliferation in the absence of TPO: in the presence of 0.1% recombinant human serum albumin; for cell proliferative effect in the absence of TPO: in the presence of PVA, absence of albumin
Protocol: (§2) Next, human hematopoietic stem cells were cultured to examine whether TPO could be replaced by a TPO receptor agonist. Examples of the known TPO receptor agonist include butyzamide, eltrombopag, or avatrombopag. Human hematopoietic stem cells were cultured in a medium containing 0.1 μM butyzamide, 3 μg/mL eltrombopag, or 3 μM avatrombopag in the presence of 0.1% recombinant human serum albumin (Albumin Biosciences) or in the presence of PVA in the above culture medium without TPO. In this experiment, Mp132D cells were used as human hematopoietic stem cells.
as §2, with “TPO receptor agonists include butyzamide,” for “TPO receptor agonist include butyzamide,”

[3] = tested on: human bone marrow CD34+ cells or cord blood CD34+ cells; details: absence of albumin, presence of PVA; TPO replaced by agonist
Protocol: In addition, purchased human bone marrow CD34^+ cells (provider name: Lonza, product No. 2C-101) or CD34^+ cells isolated using microbeads from given fresh cord blood were used for culture experiments. the experiments were performed in 24-well plates at 0.2 to 1.0×10^5 cells per well, with TPO removed from the culture medium for human hematopoietic stem cells and replaced by one of the above TPO receptor agonists (hereinafter, sometimes referred to as “TPOago”). The cell count on the seventh day of culture relative to the cell count on the first day of culture was determined.
In addition, purchased human bone marrow CD34^+ cells (provider name: Lonza, product No. 2C-101) or CD34^+ cells isolated using microbeads from given fresh cord blood were used for culture experiments. Experiments were performed in 24-well plates with 0.2 to 1.0×10^5 cells per well, with TPO removed from the culture medium for human hematopoietic stem cells and replaced by one of the above TPO receptor agonists (hereinafter, sometimes referred to as “TPOago”). The cell count on the seventh day of culture relative to the cell count on the first day of culture was determined.

[4] = tested on: human bone marrow CD34+ cells or cord blood CD34+ cells; experiment: Culture with PI3Ka and TPO or butyzamide, growth rate at day 7; format: cell-based; details: 20 μM PI3Ka, 0.1 μM butyzamide vs TPO 100 ng/mL, PVA, no albumin
Protocol: as §1

[5] = tested on: human hematopoietic stem cells; experiment: Culture with PI3Ka and/or TPOago in medium without SCF or TPO; format: cell-based; details: day 7; 20 μM PI3Ka and/or 0.1 μM TPOago; no SCF, no TPO; PVA
Protocol: Next, human hematopoietic stem cells were cultured in a medium containing 20 μM PI3Ka and/or 0.1 μM TPOago with reference to a culture medium without SCF or TPO. On day 7 of culture, the number of total cells and the number of CD34^+ cells included were counted by flow cytometry, and the growth rate relative to that at the start of culture was determined.

[6] = tested on: human bone marrow CD34+ cells or cord blood CD34+ cells; experiment: 14-day culture in PI3Ka and TPOago medium with SR-1 and/or UM171; format: cell-based
Protocol: (§3) Prepared was the above culture medium for human hematopoietic stem cells, which medium contained 20 μM PI3Ka and 0.1 μM TPOago instead of SCF and TPO (PI3Ka20μM+TPOago0.1 μM), or which medium contained SR-1 (500 nM) and/or UM171 (35 nM) (+SR-1, +UM171, or +SR-1+UM171). […] The total cell count and the CD34^+ cell count were determined as above on day 14 after the start of culture, and the growth rate relative to that at the start of culture was determined.
as §3, with “(PI3Ka20μM+TPO0.1μM),” for “(PI3Ka20μM+TPOago0.1 μM),”, “(500nM)” for “(500 nM)”

[7] = tested on: CD34+ cells; experiment: 14-day culture of CD34+ cells under conditions 1 to 3; format: cell-based, human
Protocol: Further, the growth rate of the total cell count or the CD34^+ cell count was determined by culturing the CD34^+ cells under three conditions: condition 1: cultured for 14 days in the culture medium for human hematopoietic stem cells above, which medium contained 20 μM PI3Ka and 0.1 μM TPOago instead of SCF and TPO (PI3Ka20μM+TPOago0.1μM), condition 2: at day 7 or later, cultured in a medium without butyzamide (Day7—no Buty), and condition 3: cultured for 14 days in a medium (PI3Ka20μM+TPOago0.1μM) further containing UM171 (+UM171). The CD41^+ cell count was determined using a flow cytometer.

[8] = tested on: human hematopoietic stem cells; experiment: Replacement of SCF by PI3Ka, 7-day culture; format: cell-based; details: day 7; 20 μM PI3Ka, TPO 100 ng/mL, PVA, no albumin
Protocol: Next, human hematopoietic stem cells were cultured to examine whether PI3Ka could completely replace SCF. Human hematopoietic stem cells were cultured for 7 days in the above culture medium for human hematopoietic stem cells with 20 μM PI3Ka (S10+PI3Ka20+T100) or in the above culture medium with 20 μM PI3Ka but without SCF (PI3Ka20+T100). The total number of cells and the number of isolated CD34^+ cells as obtained by cell sorting using an anti-CD34 antibody were then determined.

[9] = tested on: human hematopoietic stem cells; experiment: Culture of human hematopoietic stem cells with AKTa or PI3Ka; format: cell-based; details: 0.3 μM AKTa or 20 μM PI3Ka; PVA, no albumin, SCF 10 ng/mL, TPO 100 ng/mL
Protocol: Then, human hematopoietic stem cells were cultured in a culture medium supplemented with 0.3 μM AKTa (Sigma-Aldrich, product No. 123871) or 20 μM PI3Ka. Cells were counted after 3, 5, and 7 days of incubation, and the relative cell count at each time point was calculated while the cell count on the first day of incubation was set to 1. In the following Examples, 740Y-P (Provider name: Tocris, product No. 1983) was used as PI3Ka.

[10] = tested on: Bone marrow cell samples from CML (chronic myelogenous leukemia) patients; experiment: Culture of chronic myelogenous leukemia (CML) cells with or without imatinib; format: cell-based, human; details: one week; 0.1% PVA, 20 μM PI3Ka, 0.1 μM TPOago
Protocol: Bone marrow cell samples from CML (chronic myelogenous leukemia) patients were each cultured for one week under albumin-free and cytokine-free culture conditions. The culture medium used was a basal medium containing 0.1% PVA, 20 μM PI3Ka, and 0.1 μM TPOago. The culturing was performed in the presence or absence of an inhibitor (imatinib (IM)) of Bcr-Abl, the gene responsible for CML.

[11] = day 14, condition 2 compared to condition 1, condition 3 (+UM171) compared to condition 1 or 2

CCCOC(c1cccc(-c2csc(NC(=O)c3cc(Cl)c(C=C(C)C(=O)O)c(Cl)c3)n2)c1OC)C(C)(C)C (stereo not drawn) [butyzamide, 3-[4-[[[4-[2-methoxy-3-(1-tert-butyl-2-oxapentan-1-yl)phenyl]thiazol-2-yl]amino]carbonyl]-2,6-dichlorophenyl]-2-methylpropenoic acid]
GEmM colony formation potential, replacement of TPO [1]: can completely replace TPO | proliferation in the absence of TPO [2]: able to support proliferation | cell proliferative effect in the absence of TPO [2]: marked cell proliferative effect | cell count on the seventh day relative to the first day (proliferation) [3]: significant cell proliferation | growth rate of total cells and CD34+ cells, replacement of TPO [4]: can completely replace TPO | growth rate (total cells and CD34+ cells) relative to start of culture [5]: no increase in the cell count

CC(C)n1cnc2c(NCCc3ccc(O)cc3)nc(-c3csc4ccccc34)nc21 [SR-1]
cell death ([6]; SR-1 500 nM in PI3Ka20μM+TPOago0.1μM medium, PVA, no albumin): caused cell death

Cn1nnc(-c2ccc3c(c2)[nH]c2nc(Cc4ccccc4)nc(NC4CCC(N)CC4)c23)n1 (stereo not drawn) [UM171, 4-N-[2-benzyl-7-(2-methyltetrazol-5-yl)-9H-pyrimid[4,5-b]indol-4-yl]cyclohexane-1,4-diamine]
CD34+ cell count / growth rate of CD34+ cells [7, 11]: markedly increased | CD41+ cell count [7, 11]: markedly decreased | differentiation into megakaryocyte progenitors and megakaryocytes ([7]; serum-free medium with PVA, PI3Ka and TPOago): inhibited | growth rate of CD34+ cells, medium containing UM171 vs medium without ([6]; day 14, UM171 35 nM): significantly larger | total cell count and CD34+ cell count ([6]; day 14, UM171 35 nM added to PI3Ka20μM+TPOago0.1μM medium): increased

RQIKIWFQNRRMKWKKSDGGYMDMS [PI3Ka, Tocris, product No. 1983]
difference in number of total cells or CD34+ cells with or without SCF [8]: no significant difference | relative cell count (proliferation) after 3, 5 and 7 days [9]: marked proliferation | growth rate (total cells and CD34+ cells) relative to start of culture [5]: no increase in the cell count

Cc1ccc(NC(=O)c2ccc(CN3CCN(C)CC3)cc2)cc1Nc1nccc(-c2cccnc2)n1 [IM, imatinib]
cell expansion in the presence of IM [10]: no significant cell expansion

CCOC(=O)C1=C(N)Oc2ccc(Cl)cc2C1C(C#N)C(=O)OCC (stereo not drawn) [AKTa]
relative cell count (proliferation) after 3, 5 and 7 days [9]: no proliferative effect

SCF: stem cell factor, hematopoietic cell growth factor
difference in number of total cells or CD34+ cells with or without SCF [8]: no statistically significant difference

O=C(Nc1nc(-c2cc(Cl)cs2)c(N2CCN(C3CCCCC3)CC2)s1)c1cnc(N2CCC(C(=O)O)CC2)c(Cl)c1 [avatrombopag]
proliferation in the absence of TPO [2]: able to support proliferation | cell proliferative effect in the absence of TPO [2]: small

CC1=NN(c2ccc(C)c(C)c2)C(=O)/C1=N\Nc1cccc(-c2cccc(C(=O)O)c2)c1O [eltrombopag]
cell death (cytotoxicity) in hematopoietic stem cells [3]: caused cell death
